From US10028992B2, “Methods of treating muscular dystrophy” (BOARD OF REGENTS OF THE NEVADA SYSTEM OF HIGHER EDUCATION …, priority 2012, dated 2018)

System: α7 integrin promoter
Test: muscle cell-based assay: α7βgal+/− myoblasts/myotubes, LacZ reporter, β-galactosidase cleavage of FDG
Set-up: species or system mouse
Conditions: Myotubes; for Results in a α7+/− β-galactosidase assay, Myotubes, 0.5 uM: compound at 0.5 uM; for Results in a α7+/− β-galactosidase assay, Myotubes, 1 uM: compound at 1 uM; for Results in a α7+/− β-galactosidase assay, Myotubes, 5 uM: compound at 5 uM; for Results in a α7+/− β-galactosidase assay, Myotubes, 10 uM: compound at 10 uM; for Results in a α7+/− β-galactosidase assay, Myotubes, 20 uM: compound at 20 uM; for Results in a α7+/− β-galactosidase assay, Myotubes, 40 uM: compound at 40 uM
Procedure, shortened: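 Primary α7βgal+/− mouse myoblasts (LacZ knocked into α7 integrin exon 1, promoter retained), differentiated; promoter activity read as β-galactosidase conversion of non-fluorescent FDG to fluorescein. Hits followed by dose-response, western analysis and myostatin counterscreen.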

Row | Compound | Results in a α7+/− β-galactosidase assay, Myotubes, 0.5 uM | Results in a α7+/− β-galactosidase assay, Myotubes, 1 uM | Results in a α7+/− β-galactosidase assay, Myotubes, 5 uM | Results in a α7+/− β-galactosidase assay, Myotubes, 10 uM | Results in a α7+/− β-galactosidase assay, Myotubes, 20 uM | Results in a α7+/− β-galactosidase assay, Myotubes, 40 uM
1 | COC(=O)c1ccccc1CC(=O)CSc1nc(O)c(-c2ccccc2)c(O)n1 [drawing 458] | −0.05289 | −0.1068 | −0.1993 | 0.1104 | −0.1578 | 0.03611
2 | Cc1ccc2c(c1)/C(=C/c1ccccc1F)C(=O)N2 [drawing 459] | −0.02905 | −0.08264 | −0.2089 | 0.1057 | −0.3626 | −0.3722
3 | CC(=O)Nc1ccc(-n2c(C)nc(=O)c(-c3ccccc3)c2C)cc1 [drawing 460] | −0.1626 | −0.1764 | −0.2443 | −0.1679 | −0.3617 | −0.505
4 | CCc1nc2ccccc2c(C(=O)NCc2ccccc2)c1C [drawing 461] | −0.0989 | −0.1627 | 0.438 | 0.1173 | −0.1092 | 0.1436
5 | CCOC(=O)c1cc(-c2cccs2)nc2c1c(C)nn2-c1ccccn1 [drawing 462] | −0.07388 | −0.1286 | −0.1329 | −0.1516 | −0.2792 | −0.2792
6 | CN1CCN(c2ccccc2/C=C2\C(=O)Nc3ccccc32)CC1 [drawing 463] | 0.01535 | 0.02095 | −0.163 | −0.162 | −0.1247 | −0.07473
7 | COC(=O)c1cc(S(=O)(=O)NCC2CCN(Cc3ccc(Cl)cc3)CC2)cn1C [drawing 464] | −0.00414 | −0.05118 | −0.09401 | −0.08097 | −0.09607 | −0.07382
8 | COc1ccc(C(=O)Cn2nnc(-c3ccccc3NC(=O)c3ccco3)n2)cc1 [drawing 465] | 0.1086 | 0.1215 | −0.1502 | −0.3147 | −0.5196 | −0.8196
